Earlier results on one molecule are cited in patent US20250161538A1, “POLYMER-BASED MATERIAL WITH ANTI-BACTERIAL PROPERTIES WITH IMPROVED MECHANICAL STRENGTH FOR DENTAL APPLICATIONS” (priority 2022, published 2025).

Structures are written as SMILES.

The subject of this data set is adult rat pulp tissue. Conditions: in vivo, po.

For `[Ag+]` [Ag ions, silver], the cytotoxic effect entry is recorded as “induce cytotoxic effect”.
